Reference: patent publication US20260242419A1, “A CYCLIC PEPTIDE FOR TRAPPING INTERLEUKIN-1 BETA” (Merck Sharp & Dohme LLC, priority 2023, published 2026)
pIC50: −log10 of the molar value. Starred links: 1 amine or outer side, 2 acyl side, 3 side chain; linkers in the order of their positions; H or OH if unused. Non-standard residues stand in square brackets, D forms with d. Residues, ends and D or L forms follow the SMILES beside them. Trp(4-Cl)(βS-Me) = C[C@@H](c1c[nH]c2cccc(Cl)c12)[C@H](N)C(=O)O; dPro(4R-(4-pyridylmethyl)) = O=C(O)[C@H]1C[C@@H](Cc2ccncc2)CN1; dPro(3S-(4-Br-benzyl)) = O=C(O)[C@@H]1NCC[C@@H]1Cc1ccc(Br)cc1; Trp(βS-Me,4-F) = C[C@@H](c1c[nH]c2cccc(F)c12)[C@H](N)C(=O)O; Bip(4'-COOH) = N[C@@H](Cc1ccc(-c2ccc(C(=O)O)cc2)cc1)C(=O)O; Ala(1-bicyclo(1.1.1)pentyl) = N[C@@H](CC12CC(C1)C2)C(=O)O; dPro(4R-Bzl(4-F)) = O=C(O)[C@H]1C[C@@H](Cc2ccc(F)cc2)CN1; X19 = O=C([C@H]1C[C@@H](Cc2ccc(Br)cc2)CN1[*:1])[*:2]; 1Nal(3S-Me) = C[C@@H](c1cccc2ccccc12)[C@H](N)C(=O)O; Ala(pyrimidin-5-yl) = N[C@@H](Cc1cncnc1)C(=O)O; Phe(4-COOH) = N[C@@H](Cc1ccc(C(=O)O)cc1)C(=O)O; Pro(cis-4-F) = O=C(O)[C@@H]1C[C@H](F)CN1; Ala(4-THP) = N[C@@H](CC1CCOCC1)C(=O)O; d(αMeD) = C[C@@](N)(CC(=O)O)C(=O)O; d(αMeK) = C[C@@](N)(CCCCN)C(=O)O; 4Pal = N[C@@H](Cc1ccncc1)C(=O)O; αMeK = C[C@](N)(CCCCN)C(=O)O; hSer = N[C@@H](CCO)C(=O)O; Orn = NCCC[C@H](N)C(=O)O; Dab = NCC[C@H](N)C(=O)O; Dap = NC[C@H](N)C(=O)O; Aib = CC(C)(N)C(=O)O

Each compound was assayed against T1, IL-1β (Homo sapiens, UniProt P01584) (assay: IL-6 assay in MRC5 cells: inhibition of IL-1β induced IL-6 secretion (AlphaLISA)). Conditions: inhibition of IL-1β induced IL-6 secretion in MRC5 cells; read-out: MRC5 IC50.
T1 construct: purchased BioLegend 579404
T1 sequence (P01584 117-269): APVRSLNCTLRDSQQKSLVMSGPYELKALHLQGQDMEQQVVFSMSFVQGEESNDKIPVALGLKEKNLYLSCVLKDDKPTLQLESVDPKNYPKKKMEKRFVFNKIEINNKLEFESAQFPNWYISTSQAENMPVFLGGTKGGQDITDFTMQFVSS
Format: cell-based
In short: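 Compound was pre-incubated 1 h at ambient temperature with recombinant human IL-1β at 2λ EC80 before adding human lung fibroblast MRC5 cells (3000/well) in EMEM with 0.025% BSA. After overnight culture at 37 °C, 5% CO2, secreted IL-6 in conditioned medium was measured by AlphaLISA; IC50 from 4-parameter logistic fits.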

pIC50 | Structure (SMILES)
10.59 | C[C@@H](c1c[nH]c2cccc(F)c12)[C@@H]1NC(=O)[C@@H]2C[C@H](F)CN2C(=O)CNC(=O)[C@H](Cc2ccc(C(=O)O)cc2)NC(=O)[C@H](Cc2ccncc2)NC(=O)[C@H](Cc2ccc(-c3ccc(C(=O)O)cc3)cc2)NC(=O)[C@H]2C[C@@H](Cc3ccc(Br)cc3)CN2C(=O)CNC(=O)[C@H](CCN)NC(=O)[C@H](CCC(N)=O)NC(=O)[C@H](Cc2cncnc2)NC(=O)C(C)(C)NC(=O)[C@H](Cc2c[nH]c3ccccc23)NC(=O)[C@H](CCC(=O)O)NC(=O)C(C)(C)NC1=O [Example 143] (cyclo([Bip(4'-COOH)][4Pal][Phe(4-COOH)]G[Pro(cis-4-F)][Trp(βS-Me,4-F)][Aib]EW[Aib][Ala(pyrimidin-5-yl)]Q[Dab]G[X19]))
10.51 | C[C@@H](c1c[nH]c2cccc(F)c12)[C@@H]1NC(=O)[C@@H]2C[C@H](F)CN2C(=O)CNC(=O)[C@H](Cc2ccc(C(=O)O)cc2)NC(=O)[C@H](CC23CC(C2)C3)NC(=O)[C@H](Cc2ccc(-c3ccc(C(=O)O)cc3)cc2)NC(=O)[C@H]2C[C@@H](Cc3ccc(F)cc3)CN2C(=O)CNC(=O)[C@H](CCN)NC(=O)[C@H](CCC(N)=O)NC(=O)[C@H](Cc2cncnc2)NC(=O)[C@](C)(CCCCN)NC(=O)[C@H](Cc2c[nH]c3ccccc23)NC(=O)[C@H](CO)NC(=O)C(C)(C)NC1=O [Example 144] (cyclo([Bip(4'-COOH)][Ala(1-bicyclo(1.1.1)pentyl)][Phe(4-COOH)]G[Pro(cis-4-F)][Trp(βS-Me,4-F)][Aib]SW[αMeK][Ala(pyrimidin-5-yl)]Q[Dab]G[dPro(4R-Bzl(4-F))]))
10.39 | C[C@@H](c1c[nH]c2cccc(F)c12)[C@@H]1NC(=O)[C@@H]2C[C@H](F)CN2C(=O)CNC(=O)[C@H](Cc2ccc(C(=O)O)cc2)NC(=O)[C@H](CC23CC(C2)C3)NC(=O)[C@H](Cc2ccc(-c3ccc(C(=O)O)cc3)cc2)NC(=O)[C@H]2C[C@@H](Cc3ccc(F)cc3)CN2C(=O)CNC(=O)[C@H](CCN)NC(=O)[C@H](CCC(N)=O)NC(=O)[C@H](Cc2cncnc2)NC(=O)[C@@](C)(CCCCN)NC(=O)[C@H](Cc2c[nH]c3ccccc23)NC(=O)[C@H](CO)NC(=O)C(C)(C)NC1=O [Example 145] (cyclo([Bip(4'-COOH)][Ala(1-bicyclo(1.1.1)pentyl)][Phe(4-COOH)]G[Pro(cis-4-F)][Trp(βS-Me,4-F)][Aib]SW[d(αMeK)][Ala(pyrimidin-5-yl)]Q[Dab]G[dPro(4R-Bzl(4-F))]))
10.47 | C[C@@H](c1c[nH]c2cccc(F)c12)[C@@H]1NC(=O)[C@@H]2C[C@H](F)CN2C(=O)CNC(=O)[C@H](Cc2ccc(C(=O)O)cc2)NC(=O)[C@H](CC23CC(C2)C3)NC(=O)[C@H](Cc2ccc(-c3ccc(C(=O)O)cc3)cc2)NC(=O)[C@H]2C[C@@H](Cc3ccc(F)cc3)CN2C(=O)CNC(=O)[C@H](CCN)NC(=O)[C@H](CCC(N)=O)NC(=O)[C@H](CC2CCOCC2)NC(=O)[C@](C)(CCCCN)NC(=O)[C@H](Cc2c[nH]c3ccccc23)NC(=O)[C@H](CO)NC(=O)C(C)(C)NC1=O [Example 146] (cyclo([Bip(4'-COOH)][Ala(1-bicyclo(1.1.1)pentyl)][Phe(4-COOH)]G[Pro(cis-4-F)][Trp(βS-Me,4-F)][Aib]SW[αMeK][Ala(4-THP)]Q[Dab]G[dPro(4R-Bzl(4-F))]))
10.35 | C[C@@H](c1c[nH]c2cccc(F)c12)[C@@H]1NC(=O)[C@@H]2C[C@H](F)CN2C(=O)CNC(=O)[C@H](Cc2ccc(C(=O)O)cc2)NC(=O)[C@H](CC23CC(C2)C3)NC(=O)[C@H](Cc2ccc(-c3ccc(C(=O)O)cc3)cc2)NC(=O)[C@H]2C[C@@H](Cc3ccc(F)cc3)CN2C(=O)CNC(=O)[C@H](CCN)NC(=O)[C@H](CCC(N)=O)NC(=O)[C@H](Cc2cncnc2)NC(=O)[C@](C)(CCCCN)NC(=O)[C@H](Cc2c[nH]c3ccccc23)NC(=O)[C@H](CCO)NC(=O)C(C)(C)NC1=O [Example 147] (cyclo([Bip(4'-COOH)][Ala(1-bicyclo(1.1.1)pentyl)][Phe(4-COOH)]G[Pro(cis-4-F)][Trp(βS-Me,4-F)][Aib][hSer]W[αMeK][Ala(pyrimidin-5-yl)]Q[Dab]G[dPro(4R-Bzl(4-F))]))
10.49 | C[C@@H](c1c[nH]c2cccc(Cl)c12)[C@@H]1NC(=O)[C@@H]2C[C@H](F)CN2C(=O)CNC(=O)[C@H](Cc2ccc(C(=O)O)cc2)NC(=O)[C@H](Cc2ccncc2)NC(=O)[C@H](Cc2ccc(-c3ccc(C(=O)O)cc3)cc2)NC(=O)[C@H]2C[C@@H](Cc3ccc(F)cc3)CN2C(=O)CNC(=O)[C@H](CCN)NC(=O)[C@H](CCC(N)=O)NC(=O)[C@H](Cc2cncnc2)NC(=O)C(C)(C)NC(=O)[C@H](Cc2c[nH]c3ccccc23)NC(=O)[C@H](CCC(=O)O)NC(=O)C(C)(C)NC1=O [Example 148] (cyclo([Bip(4'-COOH)][4Pal][Phe(4-COOH)]G[Pro(cis-4-F)][Trp(4-Cl)(βS-Me)][Aib]EW[Aib][Ala(pyrimidin-5-yl)]Q[Dab]G[dPro(4R-Bzl(4-F))]))
10.62 | C[C@@H](c1cccc2ccccc12)[C@@H]1NC(=O)[C@@H]2C[C@H](F)CN2C(=O)CNC(=O)[C@H](Cc2ccc(C(=O)O)cc2)NC(=O)[C@H](Cc2ccncc2)NC(=O)[C@H](Cc2ccc(-c3ccc(C(=O)O)cc3)cc2)NC(=O)[C@H]2C[C@@H](Cc3ccc(F)cc3)CN2C(=O)CNC(=O)[C@H](CCN)NC(=O)[C@H](CCC(N)=O)NC(=O)[C@H](Cc2cncnc2)NC(=O)C(C)(C)NC(=O)[C@H](Cc2c[nH]c3ccccc23)NC(=O)[C@H](CCC(=O)O)NC(=O)C(C)(C)NC1=O [Example 149] (cyclo([Bip(4'-COOH)][4Pal][Phe(4-COOH)]G[Pro(cis-4-F)][1Nal(3S-Me)][Aib]EW[Aib][Ala(pyrimidin-5-yl)]Q[Dab]G[dPro(4R-Bzl(4-F))]))
10.72 | C[C@@H](c1c[nH]c2cccc(F)c12)[C@@H]1NC(=O)[C@@H]2C[C@H](F)CN2C(=O)CNC(=O)[C@H](Cc2ccc(C(=O)O)cc2)NC(=O)[C@H](Cc2ccncc2)NC(=O)[C@H](Cc2ccc(-c3ccc(C(=O)O)cc3)cc2)NC(=O)[C@H]2[C@@H](Cc3ccc(Br)cc3)CCN2C(=O)CNC(=O)[C@H](CN)NC(=O)[C@H](CCC(N)=O)NC(=O)[C@H](Cc2cncnc2)NC(=O)C(C)(C)NC(=O)[C@H](Cc2c[nH]c3ccccc23)NC(=O)[C@H](CCC(=O)O)NC(=O)C(C)(C)NC1=O [Example 150] (cyclo([Bip(4'-COOH)][4Pal][Phe(4-COOH)]G[Pro(cis-4-F)][Trp(βS-Me,4-F)][Aib]EW[Aib][Ala(pyrimidin-5-yl)]Q[Dap]G[dPro(3S-(4-Br-benzyl))]))
10.66 | C[C@@H](c1c[nH]c2cccc(F)c12)[C@@H]1NC(=O)[C@@H]2C[C@H](F)CN2C(=O)CNC(=O)[C@H](Cc2ccc(C(=O)O)cc2)NC(=O)[C@H](Cc2ccncc2)NC(=O)[C@H](Cc2ccc(-c3ccc(C(=O)O)cc3)cc2)NC(=O)[C@H]2[C@@H](Cc3ccc(Br)cc3)CCN2C(=O)CNC(=O)[C@H](CCCN)NC(=O)[C@H](CCC(N)=O)NC(=O)[C@H](Cc2cncnc2)NC(=O)C(C)(C)NC(=O)[C@H](Cc2c[nH]c3ccccc23)NC(=O)[C@H](CCC(=O)O)NC(=O)C(C)(C)NC1=O [Example 151] (cyclo([Bip(4'-COOH)][4Pal][Phe(4-COOH)]G[Pro(cis-4-F)][Trp(βS-Me,4-F)][Aib]EW[Aib][Ala(pyrimidin-5-yl)]Q[Orn]G[dPro(3S-(4-Br-benzyl))]))
10.51 | C[C@@H](c1c[nH]c2cccc(F)c12)[C@@H]1NC(=O)[C@@H]2C[C@H](F)CN2C(=O)CNC(=O)[C@H](Cc2ccc(C(=O)O)cc2)NC(=O)[C@H](Cc2ccncc2)NC(=O)[C@H](Cc2ccc(-c3ccc(C(=O)O)cc3)cc2)NC(=O)[C@H]2[C@@H](Cc3ccc(Br)cc3)CCN2C(=O)CNC(=O)[C@H](CCCCN)NC(=O)[C@H](CCC(N)=O)NC(=O)[C@H](Cc2cncnc2)NC(=O)C(C)(C)NC(=O)[C@H](Cc2c[nH]c3ccccc23)NC(=O)[C@H](CCC(=O)O)NC(=O)C(C)(C)NC1=O [Example 152] (cyclo([Bip(4'-COOH)][4Pal][Phe(4-COOH)]G[Pro(cis-4-F)][Trp(βS-Me,4-F)][Aib]EW[Aib][Ala(pyrimidin-5-yl)]QKG[dPro(3S-(4-Br-benzyl))]))
10.72 | C[C@@H](c1cccc2ccccc12)[C@@H]1NC(=O)[C@@H]2C[C@H](F)CN2C(=O)CNC(=O)[C@H](Cc2ccc(C(=O)O)cc2)NC(=O)[C@H](Cc2ccncc2)NC(=O)[C@H](Cc2ccc(-c3ccc(C(=O)O)cc3)cc2)NC(=O)[C@H]2[C@@H](Cc3ccc(Br)cc3)CCN2C(=O)CNC(=O)[C@H](CCN)NC(=O)[C@H](CCC(N)=O)NC(=O)[C@H](Cc2cncnc2)NC(=O)C(C)(C)NC(=O)[C@H](Cc2c[nH]c3ccccc23)NC(=O)[C@H](CCC(=O)O)NC(=O)C(C)(C)NC1=O [Example 153] (cyclo([Bip(4'-COOH)][4Pal][Phe(4-COOH)]G[Pro(cis-4-F)][1Nal(3S-Me)][Aib]EW[Aib][Ala(pyrimidin-5-yl)]Q[Dab]G[dPro(3S-(4-Br-benzyl))]))
10.96 | C[C@@H](c1c[nH]c2cccc(F)c12)[C@@H]1NC(=O)[C@@H]2C[C@H](F)CN2C(=O)CNC(=O)[C@H](Cc2ccc(C(=O)O)cc2)NC(=O)[C@H](Cc2ccncc2)NC(=O)[C@H](Cc2ccc(-c3ccc(C(=O)O)cc3)cc2)NC(=O)[C@H]2C[C@@H](Cc3ccncc3)CN2C(=O)CNC(=O)[C@H](CCN)NC(=O)[C@H](CCC(N)=O)NC(=O)[C@H](Cc2cncnc2)NC(=O)[C@@](C)(CC(=O)O)NC(=O)[C@H](Cc2c[nH]c3ccccc23)NC(=O)[C@H](CO)NC(=O)C(C)(C)NC1=O [Example 154] (cyclo([Bip(4'-COOH)][4Pal][Phe(4-COOH)]G[Pro(cis-4-F)][Trp(βS-Me,4-F)][Aib]SW[d(αMeD)][Ala(pyrimidin-5-yl)]Q[Dab]G[dPro(4R-(4-pyridylmethyl))]))
